Test results published in patent publication US20150157659A1, “METHOD OF INDUCING AUTOPHAGY AND ACTIVATING TOLL-LIKE RECEPTOR” (National Tsing Hua University, priority 2013, published 2015).

Experiments:
RAW 264.7 cells [1] = assay: Immunofluorescence microscopy for Beclin 1 and LC3; format: cell-based, mouse
Procedure: The cells were fixed and permeabilized as described previously, followed by extensive washing and primary antibody staining (1:100 dilution) for 1 h at 4° C. in the dark. The primary antibody was specific for LC3 (4108, Cell Signaling Technology), Beclin 1 (ab55878, Abcam), TLR4 (14-9924, eBioscience), TLR9 (ab17236, abcam), MyD88 (ab2068, abcam), TRAF6 (ab33915, abcam), phosphorylated NF-κB (3033, Cell Signaling Technology) or IRF3 (sc-15991, Santa Cruz Biotechnology). After washing, the cells were incubated with the goat anti-mouse antibody conjugated with Alexa 488 (for TLR9, Invitrogen), goat anti-rabbit antibody conjugated with Alexa 488 (for LC3, MyD88, TRAF6 and NF-κB, Invitrogen) or donkey anti-goat IgG conjugated with Dylight 488 (for IRF3, Jackson ImmunoResearch) for 1 h at 4° C. in the dark. After washing, the cells were counterstained with 4,6-diamidino-2-phenylindole (DAPI, Vector Labs) and visualized with a confocal microscope (Nikon TE2000 equipped with the confocal upgrade laser kit). Fifty to one hundred cells in the images for LC3 were counted for quantification of LC3+ cells.
Beclin 1 and LC3 are two key proteins associated with the autophagy pathway and are common indicators of autophagy induction. […]

RAW264.7 = assay: Cell morphology and vacuoles under phase contrast microscope after GO treatment; format: cell-based, mouse; settings: LPS 10 μg/ml, 24 h
Procedure: The mouse macrophage cell line RAW264.7 was maintained in Dulbecco's modified Eagles medium (DMEM, Gibco) containing 10% fetal bovine serum (FBS, Gibco) and subcultured upon 70-80% confluency. For GO treatment, the cells were seeded to 6-well plates (3×10^5 cells/cm^2) overnight and cultured using the medium supplemented with GO at final concentrations of 5 or 100 μg/ml for 24 h. In parallel, the cells were treated with LPS (10 μg/ml, Sigma) for 24 h as the positive control. After the treatment, the cell morphology and vacuoles were observed under the phase contrast microscope.
To examine how GO nanosheets influenced the macrophage, RAW 264.7 cells were incubated with small GO at either 5 μg/ml (designated as GO5 group) or 100 μg/ml (designated as GO100 group) for 24 h.

RAW 264.7 cells [2] = assay: Cell death and TUNEL apoptosis of treated macrophages; format: cell-based; settings: LPS 10 μg/ml
RAW 264.7 cells [3] = assay: Transmission electron microscopy of autophagic vacuoles; format: cell-based, mouse; settings: LPS 10 μg/ml
Procedure: The cells were harvested, centrifuged (215×g, 10 min), washed with cold PBS and fixed with 2.5% glutaraldehyde (in 0.2 M sodium cacodylate, pH 7.4). The samples were then fixed in 1% OsO4 for 1 h at 4° C., dehydrated with increasing concentrations of ethanol, embedded in spur resin and sectioned. The ultrathin sections were stained with uranyl acetate and observed under the TEM.

RAW 264.7 cells [4] = assay: ELISA of cytokines in supernatant of treated macrophage cells; format: cell-based, mouse; settings: LPS
Procedure: At 24 h post-treatment, the supernatant was collected from the GO-treated cell culture and analyzed using ELISA kits specific for mouse IL-2, IL-10, TNF-α, IFN-β and IFN-γ. The cells were lysed for Western blot using primary antibodies (1:1000 dilution) specific for LC3, Beclin 1 or β-actin (A-2066, Sigma) and the secondary antibody was HRP-conjugated IgG (1:5000 dilution, Amersham Biosciences). The images were developed using the GeneGnome HR scanner (Syngene).

Row | Compound | GO100-triggered formation of LC3+ aggregate dots (RAW 264.7 cells [1]; pre-treatment of cells with the autophagy inhibitor) | formation of vacuoles inside the cells (RAW264.7) | cell death (RAW 264.7 cells [2]) | autophagic vacuoles (AV) by TEM (RAW 264.7 cells [3]) | Beclin 1 and LC3 dots by immunofluorescence (RAW 264.7 cells [1]; LPS-treated cells) | cytokine secretion (RAW 264.7 cells [4])
1 | Cn1cnc(N)c2ncnc1-2 [3-MA, 3-methyl adenine] | diminished the GO100-triggered formation of LC3+ aggregate dots | – | – | – | – | –
2 | lipopolysaccharides [LPS] | – | also observed in the LPS-treated cells | also observed in the LPS-treated cells | triggered more prominent AV | also observed in the LPS-treated cells | cytokine secretion triggered by LPS
